Where “and” joins values, the source holds several entries; their conditions need not be identical. Equal values may be shown once. Inconclusive results and toxic doses are left out.
Test system: CD2F1 mice, L1210 leukemia ip, survival T/C
Assay: NCI In Vivo Anticancer Drug Screen. Data for tumor model L1210 Leukemia (intraperitoneal) in CD2F1 (CDF1) mice
Details: higher = longer survival
How it was run: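 Implant tumor; dose compound or vehicle; measure endpoint in both groups; report treated divided by control.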

[1] = endpoint: mean survival time, dose: 100.0 mg/kg/injection, schedule: Q04DX002 (ip), vehicle: saline with Tween-80
[2] = endpoint: mean survival time, dose: 200.0 mg/kg/injection, schedule: Q04DX002 (ip), vehicle: saline with Tween-80
[3] = endpoint: mean survival time, dose: 400.0 mg/kg/injection, schedule: Q04DX002 (ip), vehicle: saline with Tween-80
[4] = endpoint: mean survival time, dose: 200.0 mg/kg/injection, schedule: Q04DX003 (ip), vehicle: Klucel (hydroxypropylcellulose) (HPC)
[5] = endpoint: mean survival time, dose: 100.0 mg/kg/injection, schedule: Q01DX001 (ip), vehicle: saline with Tween-80
[6] = endpoint: mean survival time, dose: 100.0 mg/kg/injection, schedule: Q04DX003 (ip), vehicle: saline with Tween-80
[7] = endpoint: mean survival time, dose: 200.0 mg/kg/injection, schedule: Q01DX001 (ip), vehicle: saline with Tween-80
[8] = endpoint: mean survival time, dose: 200.0 mg/kg/injection, schedule: Q04DX003 (ip), vehicle: saline with Tween-80
[9] = endpoint: mean survival time, dose: 400.0 mg/kg/injection, schedule: Q01DX001 (ip), vehicle: saline with Tween-80
[10] = endpoint: mean survival time, dose: 400.0 mg/kg/injection, schedule: Q04DX003 (ip), vehicle: saline with Tween-80
[11] = endpoint: mean survival time, dose: 12.5 mg/kg/injection, schedule: Q01DX009 (ip), vehicle: saline with Tween-80
[12] = endpoint: mean survival time, dose: 25.0 mg/kg/injection, schedule: Q01DX009 (ip), vehicle: saline with Tween-80
[13] = endpoint: mean survival time, dose: 50.0 mg/kg/injection, schedule: Q01DX009 (ip), vehicle: saline with Tween-80
[14] = endpoint: mean survival time, dose: 100.0 mg/kg/injection, schedule: Q04DX003 (ip), vehicle: saline
[15] = endpoint: mean survival time, dose: 200.0 mg/kg/injection, schedule: Q04DX003 (ip), vehicle: saline
[16] = endpoint: mean survival time, dose: 400.0 mg/kg/injection, schedule: Q04DX003 (ip), vehicle: saline
[17] = endpoint: mean survival time, dose: 100.0 mg/kg/injection, schedule: Q01DX009 (ip), vehicle: saline with Tween-80
[18] = endpoint: mean survival time, dose: 200.0 mg/kg/injection, schedule: Q01DX009 (ip), vehicle: saline with Tween-80
[19] = endpoint: mean survival time, dose: 400.0 mg/kg/injection, schedule: Q01DX009 (ip), vehicle: saline with Tween-80

For COc1cc2c(c(OC)c1OC)-c1ccc(OC)c(=O)cc1[C@@H](NC(C)=O)CC2, the T/C (endpoint: mean survival time, dose: 0.02 mg/kg/injection, schedule: Q01DX009 (ip), vehicle: saline) was 117 % of control, the T/C (endpoint: mean survival time, dose: 0.03 mg/kg/injection, schedule: Q01DX009 (ip), vehicle: water) was 93 % of control and the T/C (endpoint: mean survival time, dose: 0.04 mg/kg/injection, schedule: Q01DX009 (ip), vehicle: saline) was 103 % of control. For the same molecule, the T/C (endpoint: mean survival time, dose: 0.05 mg/kg/injection, schedule: Q01DX009 (ip), vehicle: saline) was 102 % of control, the T/C (endpoint: mean survival time, dose: 0.06 mg/kg/injection, schedule: Q01DX005 (ip), vehicle: Klucel (hydroxypropylcellulose) (HPC)) was 103 % of control and the T/C (endpoint: mean survival time, dose: 0.08 mg/kg/injection, schedule: Q01DX009 (ip), vehicle: saline) was 105 % of control. For the same molecule, the T/C (endpoint: mean survival time, dose: 0.1 mg/kg/injection, schedule: Q01DX009 (ip), vehicle: saline) was 100 % of control, the T/C (endpoint: mean survival time, dose: 0.13 mg/kg/injection, schedule: Q01DX005 (ip), vehicle: Klucel (hydroxypropylcellulose) (HPC)) was 97 % of control and the T/C (endpoint: mean survival time, dose: 0.13 mg/kg/injection, schedule: Q01DX005 (ip), vehicle: water) was 117 % of control. The T/C (endpoint: mean survival time, dose: 0.16 mg/kg/injection, schedule: Q01DX009 (ip), vehicle: saline) was 111 % of control, the T/C (endpoint: mean survival time, dose: 0.19 mg/kg/injection, schedule: Q01DX009 (ip), vehicle: saline) was 104 % of control and the T/C (endpoint: mean survival time, dose: 0.25 mg/kg/injection, schedule: Q01DX005 (ip), vehicle: Klucel (hydroxypropylcellulose) (HPC)) was 114 % of control. The T/C (endpoint: mean survival time, dose: 0.25 mg/kg/injection, schedule: Q01DX005 (ip), vehicle: water) was 122 % of control, the T/C (endpoint: mean survival time, dose: 0.35 mg/kg/injection, schedule: Q04DX004 (ip), vehicle: saline) was 111 % of control and the T/C (endpoint: mean survival time, dose: 0.38 mg/kg/injection, schedule: Q01DX009 (ip), vehicle: saline) was 111 % of control. For the same molecule, the T/C (endpoint: mean survival time, dose: 0.5 mg/kg/injection, schedule: Q01DX005 (ip), vehicle: Klucel (hydroxypropylcellulose) (HPC)) was 123 % of control, the T/C (endpoint: mean survival time, dose: 0.54 mg/kg/injection, schedule: Q04DX004 (ip), vehicle: saline) was 112 % of control and the T/C (endpoint: mean survival time, dose: 0.75 mg/kg/injection, schedule: Q01DX009 (ip), vehicle: saline) was 118 % of control and 111 % of control. For the same molecule, the T/C (endpoint: mean survival time, dose: 0.8 mg/kg/injection, schedule: Q04DX004 (ip), vehicle: saline) was 115 % of control, the T/C (endpoint: mean survival time, dose: 1.2 mg/kg/injection, schedule: Q04DX004 (ip), vehicle: saline) was 122 % of control and the T/C (endpoint: median survival time, dose: 0.02 mg/kg/injection, schedule: Q01DX009 (ip), vehicle: saline) was 88 % of control and 100 % of control. For the same molecule, the T/C (endpoint: median survival time, dose: 0.04 mg/kg/injection, schedule: Q01DX009 (ip), vehicle: saline) was 100 % of control, the T/C (endpoint: median survival time, dose: 0.08 mg/kg/injection, schedule: Q01DX009 (ip), vehicle: saline) was 100 % of control and 105 % of control and the T/C (endpoint: median survival time, dose: 0.13 mg/kg/injection, schedule: Q01DX005 (ip), vehicle: saline) was 111 % of control. The T/C (endpoint: median survival time, dose: 0.16 mg/kg/injection, schedule: Q01DX009 (ip), vehicle: saline) was 114 % of control and 111 % of control, the T/C (endpoint: median survival time, dose: 0.25 mg/kg/injection, schedule: Q01DX005 (ip), vehicle: saline) was 123 % of control and the T/C (endpoint: median survival time, dose: 1.0 mg/kg/injection, schedule: Q01DX005 (ip), vehicle: saline) was 164 % of control. For the same molecule, the T/C (endpoint: median survival time, dose: 2.0 mg/kg/injection, schedule: Q01DX005 (ip), vehicle: saline) was 111 % of control.

For COC(Cc1ccccc1)(c1ccccc1)c1ccccc1, the T/C [1] was 95 % of control, the T/C [2] was 102 % of control and the T/C [3] was 91 % of control.

With CCOC1([N+](=O)[O-])c2ccccc2-c2nc3ccccc3cc21 (stereo not given) the T/C [4] was 97 % of control.

With CC(F)(F)Cc1ccccc1 the T/C [5] was 110 % of control, the T/C [6] was 98 % of control and the T/C [7] was 102 % of control. The T/C [8] was 95 % of control, the T/C [9] was 102 % of control and the T/C [10] was 98 % of control.

With Cc1sc(C)c(CCl)c1CCl the T/C [11] was 104 % of control, the T/C [12] was 108 % of control and the T/C [13] was 98 % of control.

In the case of CSC1=NCCN1, the T/C [14] is reported as 97 % of control, the T/C [15] is reported as 97 % of control and the T/C [16] is reported as 91 % of control.

In the case of c1ccc2c(c1)-c1nc3ccccc3cc1CC21CCCC1, the T/C [5] is reported as 98 % of control, the T/C [7] is reported as 98 % of control and the T/C [9] is reported as 93 % of control.

With COc1ccc(N=C=S)cc1N=C=S the T/C (endpoint: mean survival time, dose: 6.25 mg/kg/injection, schedule: Q01DX001 (ip), vehicle: saline with Tween-80) was 98 % of control, the T/C (endpoint: mean survival time, dose: 12.5 mg/kg/injection, schedule: Q01DX001 (ip), vehicle: saline with Tween-80) was 97 % of control and the T/C (endpoint: mean survival time, dose: 25.0 mg/kg/injection, schedule: Q01DX001 (ip), vehicle: saline with Tween-80) was 101 % of control.

In the case of COCC/C(COC)=N\N=C(/CCOC)COC, the T/C (endpoint: mean survival time, dose: 100.0 mg/kg/injection, schedule: Q01DX009 (ip), vehicle: saline) is reported as 102 % of control, the T/C (endpoint: mean survival time, dose: 100.0 mg/kg/injection, schedule: Q04DX003 (ip), vehicle: Klucel (hydroxypropylcellulose) (HPC)) is reported as 102 % of control and the T/C [6] is reported as 101 % of control. For the same molecule, the T/C (endpoint: mean survival time, dose: 200.0 mg/kg/injection, schedule: Q01DX009 (ip), vehicle: saline) was 108 % of control, the T/C [4] was 102 % of control and the T/C [8] was 101 % of control. The T/C (endpoint: mean survival time, dose: 400.0 mg/kg/injection, schedule: Q04DX003 (ip), vehicle: Klucel (hydroxypropylcellulose) (HPC)) was 114 % of control and the T/C [10] was 106 % of control.

For Nc1cccc(OCCOc2ccccc2[N+](=O)[O-])c1, the T/C (endpoint: mean survival time, dose: 100.0 mg/kg/injection, schedule: Q01DX001 (ip), vehicle: Klucel (hydroxypropylcellulose) (HPC)) was 93 % of control, the T/C (endpoint: mean survival time, dose: 200.0 mg/kg/injection, schedule: Q01DX001 (ip), vehicle: Klucel (hydroxypropylcellulose) (HPC)) was 90 % of control and the T/C (endpoint: mean survival time, dose: 400.0 mg/kg/injection, schedule: Q01DX001 (ip), vehicle: Klucel (hydroxypropylcellulose) (HPC)) was 90 % of control.

With COC(=O)CCC1CCC(=O)O1 (stereo not given) the T/C [17] was 98 % of control, the T/C [14] was 102 % of control and the T/C [18] was 105 % of control. For the same molecule, the T/C [15] was 100 % of control, the T/C [19] was 94 % of control and the T/C [16] was 100 % of control.

With c1ccc(N=C2SCCS2)cc1 the T/C (endpoint: mean survival time, dose: 3.13 mg/kg/injection, schedule: Q01DX001 (ip), vehicle: Klucel (hydroxypropylcellulose) (HPC)) was 93 % of control, the T/C (endpoint: mean survival time, dose: 6.25 mg/kg/injection, schedule: Q01DX001 (ip), vehicle: Klucel (hydroxypropylcellulose) (HPC)) was 97 % of control and the T/C (endpoint: mean survival time, dose: 12.5 mg/kg/injection, schedule: Q01DX001 (ip), vehicle: Klucel (hydroxypropylcellulose) (HPC)) was 108 % of control.

In the case of Cn1nc2ccccc2n1, the T/C (endpoint: mean survival time, dose: 118.0 mg/kg/injection, schedule: Q04DX003 (ip), vehicle: saline with Tween-80) is reported as 104 % of control, the T/C (endpoint: mean survival time, dose: 178.0 mg/kg/injection, schedule: Q04DX003 (ip), vehicle: saline with Tween-80) is reported as 98 % of control and the T/C (endpoint: mean survival time, dose: 266.0 mg/kg/injection, schedule: Q04DX003 (ip), vehicle: saline with Tween-80) is reported as 109 % of control. The T/C [10] was 96 % of control.

In the case of O=C(Nc1cccc2c(OC(=O)C(Cl)Cl)c(N=Nc3ccc(S(=O)(=O)Nc4nccs4)cc3)cc(N=Nc3ccc(S(=O)(=O)Nc4nccs4)cc3)c12)C(Cl)Cl (tested in a mixture with another compound), the T/C (endpoint: mean survival time, dose: 3.12 mg/kg/injection, schedule: Q01DX009 (ip), vehicle: saline with Tween-80) is reported as 96 % of control and 101 % of control, the T/C (endpoint: mean survival time, dose: 6.25 mg/kg/injection, schedule: Q01DX009 (ip), vehicle: saline with Tween-80) is reported as 95 % of control and 101 % of control and the T/C [11] is reported as 96 % of control and 102 % of control. For the same molecule, the T/C [12] was 101 % of control and 106 % of control, the T/C [13] was 101 % of control and 110 % of control and the T/C [17] was 113 % of control and 112 % of control. The T/C (endpoint: median survival time, dose: 100.0 mg/kg/injection, schedule: Q01DX009 (ip), vehicle: saline with Tween-80) was 113 % of control, the T/C (endpoint: median survival time, dose: 200.0 mg/kg/injection, schedule: Q01DX009 (ip), vehicle: saline with Tween-80) was 106 % of control and the T/C (endpoint: median survival time, dose: 400.0 mg/kg/injection, schedule: Q01DX009 (ip), vehicle: saline with Tween-80) was 100 % of control.

For O=C(NC(=S)Nc1ccc(CCO)cc1)c1cccc(Br)c1, the T/C [5] was 104 % of control, the T/C [17] was 97 % of control and 98 % of control and the T/C [1] was 88 % of control and 101 % of control. For the same molecule, the T/C [6] was 100 % of control, the T/C [7] was 98 % of control and the T/C [18] was 101 % of control and 108 % of control. For the same molecule, the T/C [2] was 91 % of control and 92 % of control, the T/C [8] was 100 % of control and the T/C [9] was 104 % of control. The T/C [19] was 86 % of control and 106 % of control, the T/C [3] was 95 % of control and the T/C [10] was 93 % of control.

From PubChem BioAssay AID256 (DTP/NCI, 2004)
